Test results from patent US20260022143A1, “Cyclic Peptide Inhibitors of IL-23” (JANSSEN PHARMACEUTICA NV, priority 2022, published 2026).
Starred links: 1 amine or outer side, 2 acyl side, 3 side chain; linkers in the order of their positions; H or OH if unused. Positions of bridges follow the written chain, without caps; N, C: chain ends. Non-standard residues stand in square brackets, D forms with d. Residues, ends and D or L forms follow the SMILES beside them. *: point of attachment. Trp(7-(3-AcNH-Ph)) = CC(=O)Nc1cccc(-c2cccc3c(C[C@H](N)C(=O)O)c[nH]c23)c1; X36 = C[N+]1(CCCc2cn(-c3ccc(C[C@H](N[*:1])C(=O)[*:2])cc3)nn2)CCOCC1; X13 = C[N+]1(Cc2cn(-c3ccc(C[C@H](N[*:1])C(=O)[*:2])cc3)nn2)CCOCC1; Me3N+(CH2)2O(CH2)2O(CH2)2CO = C[N+](C)(C)CCOCCOCCC(=O)*; Trp(7-Me) = Cc1cccc2c(C[C@H](N)C(=O)O)c[nH]c12; dLys(Me3) = C[N+](C)(C)CCCC[C@@H](N)C(=O)O; 2Nal = N[C@@H](Cc1ccc2ccccc2c1)C(=O)O; AEF = NCCOc1ccc(C[C@H](N)C(=O)O)cc1; 3Pal = N[C@@H](Cc1cccnc1)C(=O)O; Pen = CC(C)(S)[C@H](N)C(=O)O; X8 = C[N+](C)(C)CCCCCCCC*; Thp = NC1(C(=O)O)CCOCC1; X3 = C[N+](C)(C)CCCCC*; Sar = CNCC(=O)O

assay: Exposed Polar Surface Area (EPSA); format: physicochemical; conditions: SFC on Chirex 3014 column; sample 1 mM DMSO stock; read-out: EPSA
In short: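 Chirex 3014 column, 35 °C, 4 mL/min; CO2/MeOH + 20 mM NH4 formate, 5→60% modifier at 20%/min. UV/MS detection. EPSA (Å^2) from retention time vs 8-standard calibration line; duplicates; 1 mM DMSO stock injected undiluted.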

| Compound | EPSA [A^2] |
| --- | --- |
| CC(=O)NCCCC[C@@H]1NC(=O)[C@H](Cc2c[nH]c3c(-c4cccc(NC(C)=O)c4)cccc23)NC(=O)[C@H]([C@@H](C)O)NC(=O)[C@H](CC(N)=O)NC(=O)[C@@H](NC(=O)CCOCCOCC[N+](C)(C)C)C(C)(C)SSC(C)(C)[C@@H](C(=O)N[C@@H](Cc2ccc(OCCCCC[N+](C)(C)C)cc2)C(=O)N[C@@H](Cc2ccc3ccccc3c2)C(=O)NC2(C(=O)N[C@@H](CCC(=O)O)C(=O)N[C@@H](CC(N)=O)C(=O)N[C@@H](Cc3cccnc3)C(=O)N(C)CC(N)=O)CCOCC2)NC1=O [compound 444, cPEG3aCO-Pen(3)-N-T-7(3NAcPh)W-K(Ac)-Pen(3)-TMAPF-2Nal-THP-E-N-3Pya-Sar-CONH2] ({Me3N+(CH2)2O(CH2)2O(CH2)2CO}-[Pen]NT[Trp(7-(3-AcNH-Ph))]K(Ac)[Pen]Y(X3)[2Nal][Thp]EN[3Pal][Sar]-NH2; disulfide 1-6) | 174 |
| CC(=O)NCCCC[C@@H]1NC(=O)[C@H](Cc2c[nH]c3c(-c4cccc(NC(C)=O)c4)cccc23)NC(=O)[C@H]([C@@H](C)O)NC(=O)[C@H](CC(N)=O)NC(=O)[C@@H](NC(=O)CCOCCOCC[N+](C)(C)C)C(C)(C)SSC(C)(C)[C@@H](C(=O)N[C@@H](Cc2ccc(OCCN)cc2)C(=O)N[C@@H](Cc2ccc3ccccc3c2)C(=O)NC2(C(=O)N[C@@H](CCCCNC(C)=O)C(=O)N[C@@H](CC(N)=O)C(=O)N[C@@H](Cc3cccnc3)C(=O)N(C)CC(N)=O)CCOCC2)NC1=O [compound 445, cPEG3aCO-Pen(3)-N-T-7(3NAcPh)W-K(Ac)-Pen(3)-AEF-2Nal-THP-K(Ac)-N-3Pya-Sar-CONH2] ({Me3N+(CH2)2O(CH2)2O(CH2)2CO}-[Pen]NT[Trp(7-(3-AcNH-Ph))]K(Ac)[Pen][AEF][2Nal][Thp]K(Ac)N[3Pal][Sar]-NH2; disulfide 1-6) | 176 |
| CC(=O)NCCCC[C@@H]1NC(=O)[C@H](Cc2c[nH]c3c(C)cccc23)NC(=O)[C@H]([C@@H](C)O)NC(=O)[C@H](CC(N)=O)NC(=O)[C@@H](NC(=O)[C@@H](CCCC[N+](C)(C)C)NC(C)=O)C(C)(C)SSC(C)(C)[C@@H](C(=O)N[C@@H](Cc2ccc(OCCCCC[N+](C)(C)C)cc2)C(=O)N[C@@H](Cc2ccc3ccccc3c2)C(=O)NC2(C(=O)N[C@@H](CCC(=O)O)C(=O)N[C@@H](CC(N)=O)C(=O)N[C@@H](Cc3cccnc3)C(=O)N(C)CC(N)=O)CCOCC2)NC1=O [compound 446, MeCO-k(Me)3-Pen(3)-N-T-7MeW-K(Ac)-Pen(3)-TMAPF-2Nal-THP-E-N-3Pya-Sar-CONH2] (Ac-[dLys(Me3)][Pen]NT[Trp(7-Me)]K(Ac)[Pen]Y(X3)[2Nal][Thp]EN[3Pal][Sar]-NH2; disulfide 2-7) | 173 |
| CC(=O)NCCCC[C@@H]1NC(=O)[C@H](Cc2c[nH]c3c(-c4cccc(NC(C)=O)c4)cccc23)NC(=O)[C@H]([C@@H](C)O)NC(=O)[C@H](CC(N)=O)NC(=O)[C@@H](NC(=O)[C@@H](CCCC[N+](C)(C)C)NC(C)=O)C(C)(C)SSC(C)(C)[C@@H](C(=O)N[C@@H](Cc2ccc(OCCN)cc2)C(=O)N[C@@H](Cc2ccc3ccccc3c2)C(=O)NC2(C(=O)N[C@@H](CCCCNC(C)=O)C(=O)N[C@@H](CC(N)=O)C(=O)N[C@@H](Cc3cccnc3)C(=O)N(C)CC(N)=O)CCOCC2)NC1=O [compound 449] (Ac-[dLys(Me3)][Pen]NT[Trp(7-(3-AcNH-Ph))]K(Ac)[Pen][AEF][2Nal][Thp]K(Ac)N[3Pal][Sar]-NH2; disulfide 2-7) | 176 |
| CC(=O)NCCCC[C@@H]1NC(=O)[C@H](Cc2c[nH]c3c(C)cccc23)NC(=O)[C@H]([C@@H](C)O)NC(=O)[C@H](CC(N)=O)NC(=O)[C@@H](NC(=O)[C@@H](CCCC[N+](C)(C)C)NC(C)=O)C(C)(C)SSC(C)(C)[C@@H](C(=O)N[C@@H](Cc2ccc(OCCCCC[N+](C)(C)C)cc2)C(=O)N[C@@H](Cc2ccc3ccccc3c2)C(=O)NC2(C(=O)N[C@@H](CCCCNC(C)=O)C(=O)N[C@@H](CC(N)=O)C(=O)N[C@@H](Cc3cccnc3)C(=O)N(C)CC(N)=O)CCOCC2)NC1=O [compound 450, MeCO-k(Me)3-Pen(3)-N-T-7MeW-K(Ac)-Pen(3)-TMAPF-2Nal-THP-K(Ac)-N-3Pya-Sar-CONH2] (Ac-[dLys(Me3)][Pen]NT[Trp(7-Me)]K(Ac)[Pen]Y(X3)[2Nal][Thp]K(Ac)N[3Pal][Sar]-NH2; disulfide 2-7) | 165 |
| CC(=O)NCCCC[C@@H]1NC(=O)[C@H](Cc2c[nH]c3c(-c4cccc(NC(C)=O)c4)cccc23)NC(=O)[C@H]([C@@H](C)O)NC(=O)[C@H](CC(N)=O)NC(=O)[C@@H](NC(C)=O)C(C)(C)SSC(C)(C)[C@@H](C(=O)N[C@@H](Cc2ccc(OCCCCC[N+](C)(C)C)cc2)C(=O)N[C@@H](Cc2ccc3ccccc3c2)C(=O)NC2(C(=O)N[C@@H](CCCCNC(C)=O)C(=O)N[C@@H](CC(N)=O)C(=O)N[C@@H](Cc3cccnc3)C(=O)N(C)CC(N)=O)CCOCC2)NC1=O [compound 452, MeCO-Pen(3)-N-T-7(3NAcPh)W-K(Ac)-Pen(3)-TMAPF-2Nal-THP-K(Ac)-N-3Pya-Sar-CONH2] (Ac-[Pen]NT[Trp(7-(3-AcNH-Ph))]K(Ac)[Pen]Y(X3)[2Nal][Thp]K(Ac)N[3Pal][Sar]-NH2; disulfide 1-6) | 163 |

Second part, the molecule after the results:

| EPSA [A^2] | Compound |
| --- | --- |
| 173 | CC(=O)NCCCC[C@@H]1NC(=O)[C@H](Cc2c[nH]c3c(C)cccc23)NC(=O)[C@H]([C@@H](C)O)NC(=O)[C@H](CC(N)=O)NC(=O)[C@@H](NC(C)=O)C(C)(C)SSC(C)(C)[C@@H](C(=O)N[C@@H](Cc2ccc(-n3cc(CCC[N+]4(C)CCOCC4)nn3)cc2)C(=O)N[C@@H](Cc2ccc3ccccc3c2)C(=O)NC2(C(=O)N[C@@H](CCC(=O)O)C(=O)N[C@@H](CC(N)=O)C(=O)N[C@@H](Cc3cccnc3)C(=O)N(C)CC(N)=O)CCOCC2)NC1=O [compound 453] (Ac-[Pen]NT[Trp(7-Me)]K(Ac)[Pen][X36][2Nal][Thp]EN[3Pal][Sar]-NH2; disulfide 1-6) |
| 163 | CC(=O)NCCCC[C@@H]1NC(=O)[C@H](Cc2c[nH]c3c(C)cccc23)NC(=O)[C@H]([C@@H](C)O)NC(=O)[C@H](CC(N)=O)NC(=O)[C@@H](NC(C)=O)C(C)(C)SSC(C)(C)[C@@H](C(=O)N[C@@H](Cc2ccc(OCCCCCCCC[N+](C)(C)C)cc2)C(=O)N[C@@H](Cc2ccc3ccccc3c2)C(=O)NC2(C(=O)N[C@@H](CCC(=O)O)C(=O)N[C@@H](CC(N)=O)C(=O)N[C@@H](Cc3cccnc3)C(=O)N(C)CC(N)=O)CCOCC2)NC1=O [compound 457] (Ac-[Pen]NT[Trp(7-Me)]K(Ac)[Pen]Y(X8)[2Nal][Thp]EN[3Pal][Sar]-NH2; disulfide 1-6 (inferred)) |
| 167 | CC(=O)NCCCC[C@H](NC(=O)[C@H](CCC(=O)O)NC(=O)C1(NC(=O)[C@H](Cc2ccc3ccccc3c2)NC(=O)[C@H](Cc2ccc(-n3cc(C[N+]4(C)CCOCC4)nn3)cc2)NC(=O)[C@H]2NC(=O)[C@H](CCCCNC(C)=O)NC(=O)[C@H](Cc3c[nH]c4c(C)cccc34)NC(=O)[C@H]([C@@H](C)O)NC(=O)[C@H](CC(N)=O)NC(=O)[C@@H](NC(C)=O)C(C)(C)SSC2(C)C)CCOCC1)C(=O)N[C@@H](Cc1cccnc1)C(=O)N(C)CC(N)=O [compound 460] (Ac-[Pen]NT[Trp(7-Me)]K(Ac)[Pen][X13][2Nal][Thp]EK(Ac)[3Pal][Sar]-NH2; disulfide 1-6) |
